The text below walks through data of patent US20150307938A1, “METHOD TO IDENTIFY A NOVEL CLASS OF IMMUNOLOGIC ADJUVANTS” (Lancell, L.L.C., priority 2011, published 2015).

The subject of one series is Fluzone. On the set-up: species or system mice. The conditions noted are these: mouse, in vivo.
For the next series, the system named is skin dendritic cells. The series can be described thus: Flow cytometric analysis of Ahr−/− response to topical DBP. A general note: A flow cytometer gives signals particle by particle.
A further series relates to skin. The series can be described thus: Skin histology after multiple topical applications of DBP. The conditions noted are these: multiple topical doses.

Take `CCCCOC(=O)c1ccccc1C(=O)OCCCC` [DBP, dibutylphthalate]: in the series on Fluzone, the “IgA Ab in bronchoalveolar lavage” value is listed as “highly significantly increased”; the “IgA Ab in bronchoalveolar lavage, persistence” value is “remained undiminished”; the “Serum antibodies of all IgG isotypes” value was “highly significantly increased”. This molecule also gave an E/C in the series with skin dendritic cells (Ahr−/− mice) of 6.375. The molecule further returned an E/C in the series with skin dendritic cells (B6 mice) of 5.97. Further, the “skin dendritic cell response in AhR−/− mice” value in the series on skin dendritic cells (topical application) is reported as “no evidence for any impairment”. Further, the “histologic evidence of inflammation in the skin” value with skin is on record as “no histologic evidence of inflammation”.
